In brackets after ≈: the same amount, converted by molar mass.
Key:
[1] = tested on: Staphylococcus aureus CMRSA-2; assay: Broth microdilution MIC; format: cell-based; conditions: CMRSA2, S. aureus CMRSA-2, read-out: Broth Microdilution MIC
[2] = tested on: Escherichia coli ΔlptD4213; assay: microbe, parasite or virus in culture; format: cell-based; conditions: read-out: Broth Microdilution MIC
Source text: (§1) Reference strains for this study (S. aureus ATCC 29213, ATCC 29740 [bovine mastitis strain Newbould], S. epidermidis ATCC 12228, E. coli ATCC 35695, E. faecalis ATCC 29212) were obtained from the American Type Culture Collection (ATCC, Rockville, MD). S. aureus strains CMRSA-10 and CMRSA-2 were obtained from the Laboratoire de santé publique du Québec (LSPQ, Sainte-Anne-de-Bellevue, QC, Canada) and are Canadian CA-MRSA USA-300 and HA-MRSA USA-100 clones, respectively. The strain E. coli imp4213 (lptD), used as a control in MIC assays, is a derivative of E. coli ATCC 35695 (E. coli MC4100) with an increased membrane permeability. […] Other MRSA strains used in this study are clinical isolates of human origin obtained from the microbiology laboratory of the Centre Hospitalier Universitaire de Sherbrooke (CHUS, Sherbrooke, QC, Canada). Bovine mastitis strains (S. aureus, S. chromogenes, S. haemolyticus, S. hominis, S. simulans) were obtained from the Canadian Bovine Mastitis and Milk Quality Research Network (CBRQMN, St-Hyacinthe, QC, Canada). Among these strains, S. aureus 2117 is a high producer of biofilm and was used in the biofilm-eradication assay. S. epidermidis isolates were provided by Centre de Recherche en Infectiologie (CRI) de Québec (Québec, QC, Canada).

[3] = tested on: Bovine S. aureus; assay: Susceptibility of isolate panel (MIC50, MIC90, range); format: cell-based, Staphylococcus aureus; conditions: Bovine S. aureus, 48 isolates
Source text: as §1
(§2) The antibacterial activity of the most promising compound, PC206, was also evaluated against larger groups of clinical isolates of human and animal origin. The MIC50 and MIC90 values represented the concentrations of drug required to inhibit the growth of 50% and 90% of the bacterial strains tested, respectively.

[4] = tested on: MRSA; assay: as above; format: cell-based, Staphylococcus aureus; conditions: 42 isolates
Source text: as §1, §2

[5] = tested on: S. hominis; assay: as above; format: cell-based; conditions: S. hominis, 10 isolates
Source text: as §1, §2

[6] = tested on: S. simulans; assay: as above; format: cell-based
Source text: as §1, §2

[7] = tested on: S. aureus bovine strain 2117 embedded in preformed biofilm; assay: Biofilm-eradication test (MBEC assay); format: cell-based, Staphylococcus aureus; conditions: 24 h exposure
Procedure: The viability of bacteria in preformed biofilms treated with PC206 was evaluated using the MBEC assay™ system (formerly the Calgary Biofilm Device). The device consists of a plastic lid with 96 pegs and a 96-well plate. […] Plates were incubated at 35 °C for 24 h with agitation (120 rpm). […] The pegs were washed three times with PBS and the biofilm was sonicated for 10 min, and then transferred into a new 96-well base plate. The 96-well plate was centrifuged for 5 min at 180 g to recover the detached bacteria.

[8] = MTT assay; format: cell-based; conditions: human, HepG2 cells
[9] = MTT assay; format: cell-based; conditions: bovine, MAC-T cells
[10] = LDH release assay; format: cell-based; conditions: human, HepG2 cells
[11] = tested on: HepG2 and MAC-T cells versus S. aureus Newbould; assay: Selectivity ratios over both assays and both cell lines; format: cell-based; conditions: over MTT and LDH assays
Procedure: All CC50 values are reported in Table 3, and plots are provided in the Supplementary Information (Supplementary Figure S2). PC371 had no effect on cell viability even at the highest concentrations tested (CC50 > 600 μM) in both the MTT and the LDH assay and for the two cell lines tested. For the three other compounds, in both cell lines and both assays, a correlation was observed between the effect on cell viability and the length of their aliphatic chain. CC50 of PC372 (5 carbons) was higher than that of PC206 (6 carbons), and both were higher than that of PC383 (10 carbons). Indeed, for the MAC-T cells in the MTT assay, the values were >600 μM (PC372), 317 μM (PC206), and 13.5 μM (PC383). Again, for the MAC-T cell line, the values for the LDH assay were >600 μM (PC372 and PC206) and 23.6 μM (PC383). Similar results were obtained with the HepG2 cells. […] Overall, the MAC-T cells tolerated better exposure to the compounds than the HepG2 cells. To assess the selectivity of the PC2 analogs towards S. aureus, selectivity ratios were calculated. These ratios were obtained by dividing the cytotoxicity CC50 values of an analog by its MIC against S. aureus Newbould. It was not possible to calculate the selectivity ratio for PC371 as its CC50 and MIC values exceeded the maximum values tested.

[12] = Recovery of PC206 from quarter milk after intramammary infusion; format: in vivo; conditions: cows
Procedure: The innocuity of PC206 was evaluated in cows, as previously described for other test substances. Following morning milking, each of the four mammary gland quarters […] was infused with various doses of PC206 (100, 250, 500 mg) or saline as a negative control. […] Cows were milked using an individual quarter-milking unit in order to measure individual quarter-milk production. PC206 concentration in milk was also measured; milk samples were diluted with an equal volume of isopropanol and washed 3 times with hexane. PC206 was extracted using ethyl acetate, filtered on Na2SO4, and evaporated. The dried samples were diluted 80:20 in ACN:H2O containing an internal standard. The content of PC206 was determined using single-ion monitoring (SIMS) on UPLC-MS.

[13] = Chemical stability; format: physicochemical
[14] = tested on: Staphylococcus epidermidis ATCC 12228; assay: Broth microdilution MIC; conditions: ATCC12228, read-out: Broth Microdilution MIC
[15] = tested on: Enterococcus faecalis ATCC 29212; assay: Broth microdilution MIC; conditions: ATCC29212, read-out: Broth Microdilution MIC
[16] = tested on: Escherichia coli ATCC 35695; assay: Broth microdilution MIC; conditions: ATCC35695, read-out: Broth Microdilution MIC
[17] = Staphylococcus aureus, read-out: MIC50
[18] = Staphylococcus aureus, read-out: MIC90

CCCCCCNc1cc(N)nc(N)n1 [PC206]
MIC [1]: 8 µg/mL (≈ 38.2 µM) | MIC [2]: > 128 µg/mL | MIC Range [3]: 0.5 to 64 µg/mL | MIC50 [3, 17]: 8 µg/mL (≈ 38.2 µM) | MIC90 [3, 18]: 16 µg/mL (≈ 76.4 µM) | MIC Range [4]: 2 to 128 µg/mL | MIC50 [4, 17]: 8 µg/mL (≈ 38.2 µM) | MIC90 [4, 18]: 16 µg/mL (≈ 76.4 µM) | MIC Range [5]: 1 to 32 µg/mL | MIC50 ([5]; Staphylococcus hominis, read-out: MIC50): 8 µg/mL (≈ 38.2 µM) | MIC90 ([5]; Staphylococcus hominis, read-out: MIC90): 32 µg/mL (≈ 153 µM) | MIC Range ([6]; S. simulans, 5 isolates): 64 to 128 µg/mL | MIC90 ([6]; Staphylococcus simulans): 128 µg/mL (≈ 612 µM) | MIC50 ([6]; Staphylococcus simulans, S. simulans, 5 isolates, read-out: MIC50): 64 µg/mL (≈ 306 µM) | Reduction in CFU/peg compared to the untreated biofilm ([7]; 32 µg/mL): 1.28 log10 | Reduction in CFU/peg compared to the untreated biofilm ([7]; 128 µg/mL): 2.40 log10 | Reduction in CFU/peg compared to the untreated biofilm ([7]; 512 µg/mL): 5.43 log10 | CC50 at 24 h [8]: 160 ± 31 µM | CC50 at 24 h ([9]; 24 h): 317 ± 43 µM | CC50 at 24 h ([9]; converted from μM): 66 µg/mL | CC50 at 24 h [10]: 149 ± 24 µM | Selectivity ratio (CC50/MIC against S. aureus Newbould), overall [11]: above 3.9 | Time the concentration in quarter milk remained above the MIC (8 µg/mL) ([12]; single intramammary infusion of 100 mg): over 2 h | Time the concentration in quarter milk remained above the MIC (8 µg/mL) ([12]; single intramammary infusion of 250 mg): > 4 h | Time the concentration in quarter milk remained above the MIC (8 µg/mL) ([12]; single intramammary infusion of 500 mg): about 8 h | Stability in solution [13]: remains stable in solution | MIC [14]: 4 µg/mL (≈ 19.1 µM) | MIC [15]: 128 µg/mL (≈ 612 µM) | MIC [16]: > 128 µg/mL

Reference: paper PMC10451377, “Rationally Designed Pyrimidine Compounds: Promising Novel Antibiotics for the Treatment of Staphylococcus aureus-Associated Bovine Mastitis” (Antibiotics, 2023)
